# According to PubChem BioAssay AID1189 (EPA DSSTox, 2008):
# The source made the active and inactive calls.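 How the source made its calls: active means a tumor-causing dose value with its tumor site reported for any sex and species group of a rodent or other animal cancer study; inconclusive means only studies judged inadequate by the national testing program; inactive means tested in at least one study, none positive.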
# Assay: DSSTox (CPDBAS) Carcinogenic Potency Database Summary SingleCellCall Results
# Conditions: animal chronic carcinogenicity bioassays, CPDB summary call
# Outline: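 Categorical carcinogenicity call compiled from published chronic rodent and other animal cancer bioassays; based on the most positive result across experiments for each sex-species, assigned on minimal evidence for or against activity.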
row,Structure (SMILES),outcome
1,CN(N=O)c1ccccc1,active
2,CC(C)C[C@H]1C(=O)N2CCC[C@H]2[C@]2(O)O[C@](NC(=O)[C@@H]3C=C4c5cccc6[nH]c(Br)c(c56)C[C@H]4N(C)C3)(C(C)C)C(=O)N12,active
3,O=C1NC(c2ccc([N+](=O)[O-])s2)Nc2ccccc21 (stereo not drawn),active
4,Clc1cc2c(c(Cl)c1Cl)Oc1c(cc(Cl)c(Cl)c1Cl)O2,active
5,CC(Oc1c(Cl)cccc1Cl)C1=NCCN1 (stereo not drawn),inactive
6,CS(=O)(=O)c1ccc([C@@H](O)[C@@H](CO)NC(=O)C(Cl)Cl)cc1,inactive
7,CN1C(C(=O)Nc2ccccn2)=C(O)c2ccccc2S1(=O)=O,inactive
8,N#CS,inactive
9,O=CNNC=O,active
10,CC(=O)OCC(=O)[C@@]12N=C(C)O[C@@H]1C[C@H]1[C@@H]3CCC4=CC(=O)C=C[C@]4(C)[C@H]3[C@@H](O)C[C@@]12C,active
11,Cc1ccc(O)c(O)c1,active; inactive
12,CCOC(=O)C1OC1(C)c1ccccc1 (stereo not drawn),inactive
13,Clc1ccc(-c2ccc(Cl)c(Cl)c2Cl)c(Cl)c1Cl,active
14,ClCC(Cl)CCl,active; inactive
15,O=C1CN(/N=C/c2ccc([N+](=O)[O-])o2)C(=O)N1,active
16,CCCOC(=O)c1cc(O)c(O)c(O)c1,inactive
17,O=C/C=C/c1ccccc1,inactive
18,Nc1ccc(Cl)c(N)c1,active
19,Nc1ccc(NCCO)c([N+](=O)[O-])c1,inactive
20,Nc1ccc(-c2ccc(F)cc2)cc1,active
21,NC(=O)NC1NC(=O)NC1=O (stereo not drawn),inactive
22,CC(O)CNCC(C)O (stereo not drawn),inactive
23,Nc1nc(/C=C/c2ccc([N+](=O)[O-])o2)no1,active
24,CCC1(c2ccccc2)C(=O)N=C(O)NC1=O (stereo not drawn),active
25,CCC(CC)C(=O)NC(N)=O,inactive; active

row,Structure (SMILES),outcome
1,CC(=O)Nc1ccc(-c2ccc(F)cc2)cc1,active
2,CC1(C)COC1=O,active
3,CN(C)C(=S)SC(=S)N(C)C,inactive
4,Nc1ccc2ccccc2c1,active
5,CCC1NC(=O)C2C(Cl)C(Cl)CN2C(=O)C(CO)NC(=O)CC(c2ccccc2)NC(=O)C(CO)NC1=O (stereo not drawn),active; inactive
6,C[C@H]1CCCCN1N=O,active
7,Cc1cccc(C)c1NC1=NCCCS1,inactive
8,CCN(CC)C(=S)S,inactive; active
9,NC(=O)/C(=C\c1ccc([N+](=O)[O-])o1)c1ccco1,active
10,C[C@]12C=CC(=O)C=C1CC[C@@H]1[C@@H]2[C@@H](O)C[C@@]2(C)[C@H]1CC[C@]2(O)C(=O)CO,active
11,CC(C)Oc1ccccc1OC(=O)N(C)N=O,active
12,COc1nn(CSP(=S)(OC)OC)c(=O)s1,active
13,C/C=C1/C[C@@H](C)[C@](O)(CO)C(=O)OCC2=CC[N+]3([O-])CC[C@@H](OC1=O)[C@@H]23 (stereo partly drawn),active
14,CC(=O)N[C@@H](CC(C)C)C(=O)N[C@@H](CC(C)C)C(=O)N[C@H](C=O)CCCN=C(N)N,active; inactive
15,NC(=S)NNC=O,inactive
16,CC(C)(C)c1cc([N+](=O)[O-])cc([N+](=O)[O-])c1OS(C)(=O)=O,inactive
17,NC(=S)NNC(N)=S,inactive
18,CCN(Cc1cccc(S(=O)(=O)O)c1)c1ccc(C(=C2C=CC(=[N+](CC)Cc3cccc(S(=O)(=O)[O-])c3)C=C2)c2ccccc2)cc1,active
19,O=C(O)CCC(=O)O,inactive; active
20,Cc1cccc(Nc2cc(Cl)nc(SCC(=O)O)n2)c1C,active; inactive
21,C=CCOCC1CO1 (stereo not drawn),active
22,Cc1cccc2ccccc12,inactive; active
23,CC(C)(C)NC[C@H](O)COc1cccc2c1CCCC2=O,inactive
24,CNNC,active
25,CCCN(CCC)S(=O)(=O)c1ccc(C(=O)O)cc1,active

row,Structure (SMILES),outcome
1,COc1cc(OC)c2c3c(c(=O)oc2c1)CCC3=O,inactive
2,C/C=C/C=C/C=O,active
3,C[C@]12CC[C@@H]3c4ccc(OC(=O)Cc5ccc(N(CCCl)CCCl)cc5)cc4CC[C@H]3[C@@H]1CC[C@@H]2OC(=O)Cc1ccc(N(CCCl)CCCl)cc1,active
4,O=[N+]([O-])c1cc([As](=O)(O)O)ccc1O,inactive
5,O=[N+]([O-])c1ccc2ncccc2c1,inactive; active
6,COc1cccc2c1C(=O)c1c(O)c3c(c(O)c1C2=O)C[C@@](O)(C(=O)CO)C[C@@H]3O[C@H]1C[C@H](N)[C@H](O)[C@H](C)O1,inactive; active
7,CCCCCCCCCCCCN=C(N)N,inactive
8,NC(=O)N(CCF)N=O,active; inactive
9,C[C@H]1C(=O)O[C@@H]2CCN3CC=C(COC(=O)[C@](C)(O)[C@]1(C)O)[C@H]23,active
10,C=C1C[C@@]23CC[C@H]4[C@@](C)(CCC[C@@]4(C)C(=O)O[C@@H]4O[C@H](CO)[C@@H](O)[C@H](O)[C@H]4O)[C@@H]2CC[C@]1(O[C@@H]1O[C@H](CO)[C@@H](O)[C@H](O)[C@H]1O[C@@H]1O[C@H](CO)[C@@H](O)[C@H](O)[C@H]1O)C3,inactive
11,Oc1cccc(O)c1,inactive
12,CC[C@H]1OC(=O)[C@H](C)[C@@H](O[C@H]2C[C@@](C)(OC)[C@@H](O)[C@H](C)O2)[C@H](C)[C@@H](O[C@@H]2O[C@H](C)C[C@H](N(C)C)[C@H]2O)[C@](C)(O)C[C@@H](C)C(=O)[C@H](C)[C@@H](O)[C@]1(C)O,inactive; active
13,CC/C(=C(\c1ccccc1)c1ccc(OCCN(C)C)cc1)c1ccccc1,active
14,COC(N)=O,active
15,CCN(CC)C(=S)[S-].CCN(CC)C(=S)[S-].[Cd+2],inactive
16,CCC1C(=O)OCC1Cc1cncn1C (stereo not drawn),inactive
17,CNC(=O)c1c(N(C)N=O)ncn1C,active
18,Clc1ccc(C(c2ccc(Cl)cc2)C(Cl)Cl)cc1,active
19,C=CCNNCC=C,active; inactive
20,O=C1CC(=O)NC(=O)N1,inactive
21,CCCCNN,active
22,O=c1cc(CO)occ1O,active
23,O=NN1CCOCC1,active; inactive
24,COc1c(Cl)c(Cl)c(Cl)c(Cl)c1Cl,active
25,CC(CN1CC(=O)NC(=O)C1)N1CC(=O)NC(=O)C1 (stereo not drawn),active

row,Structure (SMILES),outcome
1,NN,active
2,CCCCN(CCCC)N=O,active
3,NCCCCCC(=O)O,inactive; active
4,ClC1=C(Cl)[C@]2(Cl)[C@@H]3[C@H]4C=CC(C4)[C@@H]3C1(Cl)C2(Cl)Cl,active
5,C1CCNCC1,inactive; active
6,CC(C)Oc1ccc(Nc2ccccc2)cc1,inactive
7,ClCCOCCCl,active
8,CN(C)CCOC(c1ccccc1)c1ccccc1,inactive
9,CN(C)C(=O)Nc1ccc(Cl)cc1,active
10,C=O,active
11,COC(=O)C(C)(C)Oc1ccc(-c2ccc(Cl)cc2)cc1,active
12,O=C(O)/C=C/c1ccc(O)c(O)c1,active
13,Cc1c(N)cccc1N,inactive
14,O=C1NCCN1,inactive
15,O=C1c2ccccc2C(=O)c2c(O)c(O)cc(O)c21,active
16,CC(=O)Nc1ccc(C(=O)CCl)cc1,inactive
17,Cc1cc(N)ccc1N,inactive
18,CC(C)NCC(O)c1ccc(NS(C)(=O)=O)cc1 (stereo not drawn),inactive
19,[Cl-].[Hg+],inactive; active
20,S=C=NCCCc1ccccc1,inactive
21,NC(N)=Nc1nc(CSCCNc2nsnc2N)cs1,active
22,CC[N+]([O-])=NC,active
23,Nc1ncn([C@@H]2O[C@H](CO)[C@@H](O)[C@H]2O)c(=O)n1,active
24,Nc1cc(S(=O)(=O)O)cc2cc(S(=O)(=O)O)c(N=Nc3ccc(-c4ccc(N=Nc5c(S(=O)(=O)O)cc6cc(S(=O)(=O)O)cc(N)c6c5O)cc4)cc3)c(O)c12,active
25,CN[C@H]1CCc2cc(OC)c(OC)c(OC)c2-c2ccc(OC)c(=O)cc21,inactive

row,Structure (SMILES),outcome
1,CC(=O)Nc1ccc(S(=O)(=O)O)c2cc(S(=O)(=O)O)c(N=Nc3ccc(N=Nc4ccc(S(=O)(=O)O)cc4)c4ccc(S(=O)(=O)O)cc34)c(O)c12,inactive; active
2,Oc1ccccc1-c1ccccc1,active
3,COc1cc2c(c3oc(=O)c4c(c13)CC[C@H]4O)[C@@H]1C=CO[C@H]1O2,active
4,OC[P+](CO)(CO)CO,inactive; active
5,CC1CO1 (stereo not drawn),active
6,O=CCCCC=O,inactive; active
7,Cc1cn([C@H]2C[C@H](N=[N+]=[N-])[C@@H](CO)O2)c(=O)[nH]c1=O,active
8,CC(=O)CN(CC(C)=O)N=O,active
9,O=[N+]([O-])c1ccc(O)c([N+](=O)[O-])c1,inactive
10,COc1cc(/C=C/C(=O)CC(=O)/C=C/c2ccc(O)c(OC)c2)ccc1O,inactive
11,N=C1C=CC(=C(c2ccc(N)cc2)c2ccc(N)cc2)C=C1,active
12,O=c1[nH]nc(-c2ccc([N+](=O)[O-])o2)o1,active; inactive
13,COCCl,active; inactive
14,Brc1cc(Br)c2cccnc2c1,inactive; active
15,C[C@]12CC[C@H](O)CC1=CC[C@@H]1[C@@H]2CC[C@]2(C)C(=O)CC[C@@H]12,active
16,Clc1cccc(-c2ccc(Cl)c(Cl)c2Cl)c1Cl,active
17,C=CC(=O)NCO,active; inactive
18,O=C(O)Cc1cccc2ccccc12,inactive; active
19,CCO,active
20,O=C(O)C(Cl)Cl,active; inactive
21,Cc1cc(=O)[nH]c(=S)[nH]1,active
22,CC(C)N(C(=O)SC/C(Cl)=C/Cl)C(C)C,active; inactive
23,CCC1(c2ccccc2)C(=O)NC(=O)NC1=O,active
